Biological target: T1, CCDC6-RET (Homo sapiens, UniProt P07949+Q16204+Q96SW2)
T1 construct: CCDC6 (natural N-terminal fusion partner, UniProt Q16204); endogenous in cells; host or cells: TPC-1 (parental, papillary thyroid carcinoma)
Experiment: Cellular RET degradation, AlphaLISA, TPC-1 cell line
Format: cell-based
Conditions: for Dmax: TPC1, human, 24 h, read-out: Cell Density TPC-1/CCDC6-RET Ymax %; for DC50: read-out: Cell Density TPC-1/CCDC6-RET DC50, half-maximal degradation concentration, TPC-1 (CCDC6-RET), 24 hrs
Method in brief: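 TPC-1 papillary thyroid carcinoma cells (endogenous CCDC6-RET) in DMEM with 2% FBS, compound-treated 24 h at 37 °C. RET in lysates quantified by AlphaLISA luminescence, normalized to media-only and DMSO wells; DC50 and maximal degradation from 4-parameter logistic fit.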

T1 sequence (Q16204+P07949 fused): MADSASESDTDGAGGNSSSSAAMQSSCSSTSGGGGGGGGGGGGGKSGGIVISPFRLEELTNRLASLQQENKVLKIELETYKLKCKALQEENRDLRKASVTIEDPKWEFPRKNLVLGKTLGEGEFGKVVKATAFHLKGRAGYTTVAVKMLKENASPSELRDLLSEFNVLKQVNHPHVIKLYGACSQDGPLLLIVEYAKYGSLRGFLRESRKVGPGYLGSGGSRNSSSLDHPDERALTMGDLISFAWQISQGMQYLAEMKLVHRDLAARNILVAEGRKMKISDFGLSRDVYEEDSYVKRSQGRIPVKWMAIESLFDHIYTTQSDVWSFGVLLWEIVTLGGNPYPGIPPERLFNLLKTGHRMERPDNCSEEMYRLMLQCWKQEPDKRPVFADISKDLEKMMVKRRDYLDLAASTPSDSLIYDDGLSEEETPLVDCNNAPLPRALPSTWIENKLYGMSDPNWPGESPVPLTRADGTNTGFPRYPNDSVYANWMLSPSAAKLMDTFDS
T1 sequence (Q96SW2 whole entry, the tested form may be a part): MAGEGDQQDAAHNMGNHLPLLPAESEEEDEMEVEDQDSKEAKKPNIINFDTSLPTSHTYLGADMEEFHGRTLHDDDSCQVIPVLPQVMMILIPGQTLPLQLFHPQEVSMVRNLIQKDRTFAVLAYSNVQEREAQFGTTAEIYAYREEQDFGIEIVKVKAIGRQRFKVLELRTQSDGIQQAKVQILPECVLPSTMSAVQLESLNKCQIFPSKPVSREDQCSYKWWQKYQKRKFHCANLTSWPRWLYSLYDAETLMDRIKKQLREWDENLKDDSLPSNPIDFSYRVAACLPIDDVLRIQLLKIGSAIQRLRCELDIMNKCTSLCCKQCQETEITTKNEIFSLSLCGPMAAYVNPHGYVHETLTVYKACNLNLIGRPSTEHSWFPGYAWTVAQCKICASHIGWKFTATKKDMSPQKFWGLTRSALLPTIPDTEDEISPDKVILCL
T1 sequence (Q16531 whole entry partner, the tested form may be a part): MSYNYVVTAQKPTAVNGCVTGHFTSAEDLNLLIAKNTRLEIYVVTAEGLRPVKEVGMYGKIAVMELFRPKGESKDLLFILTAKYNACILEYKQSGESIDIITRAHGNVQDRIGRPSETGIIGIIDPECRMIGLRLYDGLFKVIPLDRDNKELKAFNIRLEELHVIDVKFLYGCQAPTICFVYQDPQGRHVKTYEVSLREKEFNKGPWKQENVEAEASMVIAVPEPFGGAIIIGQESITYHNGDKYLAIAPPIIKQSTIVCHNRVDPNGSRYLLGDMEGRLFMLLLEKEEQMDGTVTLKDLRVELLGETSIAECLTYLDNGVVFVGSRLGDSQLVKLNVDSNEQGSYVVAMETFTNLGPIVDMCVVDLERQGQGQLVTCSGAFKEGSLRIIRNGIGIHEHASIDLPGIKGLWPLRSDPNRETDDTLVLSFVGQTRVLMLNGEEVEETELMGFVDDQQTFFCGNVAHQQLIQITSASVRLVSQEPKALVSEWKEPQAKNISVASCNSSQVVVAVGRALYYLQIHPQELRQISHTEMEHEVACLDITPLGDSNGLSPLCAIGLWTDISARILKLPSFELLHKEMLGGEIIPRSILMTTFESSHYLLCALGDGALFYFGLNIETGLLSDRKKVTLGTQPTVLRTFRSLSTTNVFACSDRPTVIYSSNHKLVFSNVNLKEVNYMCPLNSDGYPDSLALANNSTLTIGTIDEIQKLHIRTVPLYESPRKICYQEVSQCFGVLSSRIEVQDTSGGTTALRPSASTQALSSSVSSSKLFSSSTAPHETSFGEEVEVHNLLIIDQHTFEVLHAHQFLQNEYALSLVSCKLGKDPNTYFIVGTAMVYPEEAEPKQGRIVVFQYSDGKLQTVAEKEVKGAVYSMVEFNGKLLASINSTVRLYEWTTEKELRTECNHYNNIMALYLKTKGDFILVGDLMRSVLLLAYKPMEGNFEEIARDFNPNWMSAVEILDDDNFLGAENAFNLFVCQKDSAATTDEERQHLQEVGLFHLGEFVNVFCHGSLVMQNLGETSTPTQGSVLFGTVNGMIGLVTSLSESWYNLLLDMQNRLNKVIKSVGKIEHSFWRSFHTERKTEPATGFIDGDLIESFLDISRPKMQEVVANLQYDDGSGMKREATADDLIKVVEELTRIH

SMILES | Dmax | DC50
CCOc1cc(-c2ccc(N3CCC(CN4CCN(CCOCCC(=O)N5CCC(c6ccc7c(c6)C(=O)N(C6CCC(=O)NC6=O)C7)CC5)CC4)(NC(=O)c4cc(F)ccc4F)CC3)nc2)c2c(C#N)cnn2c1 (centres unmarked) [Example 101, N-[1-(5-{3-cyano-6-ethoxypyrazolo[1,5-a]pyridin-4-yl}pyridin-2-yl)-4-({4-[2-(3-{4-[2-(2,6-dioxopiperidin-3-yl)-3-oxo-2,3-dihydro-1H-isoindol-5-yl]piperidin-1-yl}-3-oxopropoxy)ethyl]piperazin-1-yl}methyl)piperidin-4-yl]-2,5-difluorobenzamide] | > 90% | 10 to 100 nM
CCOc1cc(-c2ccc(N3CCC(CN4CCN(CCOCCC(=O)N5CCN(c6ccc7c(c6)C(=O)N(C6CCC(=O)NC6=O)C7)CC5)CC4)(NC(=O)c4cc(F)ccc4F)CC3)nc2)c2c(C#N)cnn2c1 (centres unmarked) [Example 103, N-[1-(5-{3-cyano-6-ethoxypyrazolo[1,5-a]pyridin-4-yl}pyridin-2-yl)-4-({4-[2-(3-{4-[2-(2,6-dioxopiperidin-3-yl)-3-oxo-2,3-dihydro-1H-isoindol-5-yl]piperazin-1-yl}-3-oxopropoxy)ethyl]piperazin-1-yl}methyl)piperidin-4-yl]-2,5-difluorobenzamide] | > 90% | 10 to 100 nM
CCOc1cc(-c2ccc(N3CCC(CN4CCN(CCOCCOCCC(=O)Nc5ccc6c(N7CCC(=O)NC7=O)nn(C)c6c5)CC4)(NC(=O)c4cc(F)ccc4F)CC3)nc2)c2c(C#N)cnn2c1 [Example 108, N-[1-(5-{3-cyano-6-ethoxypyrazolo[1,5-a]pyridin-4-yl}pyridin-2-yl)-4-[(4-{2-[2-(2-{[3-(2,4-dioxo-1,3-diazinan-1-yl)-1-methyl-1H-indazol-6-yl]carbamoyl}ethoxy)ethoxy]ethyl}piperazin-1-yl)methyl]piperidin-4-yl]-2,5-difluorobenzamide] | 60 to 90% | 10 to 100 nM
CCOc1cc(-c2ccc(N3CCC(CN4CCN(CCOCCOCCC(=O)N5CCN(c6ccc7c(c6)CN(C6CCC(=O)NC6=O)C7=O)CC5)CC4)(NC(=O)c4cc(F)ccc4F)CC3)nc2)c2c(C#N)cnn2c1 (centres unmarked) [Example 109, N-[1-(5-{3-cyano-6-ethoxypyrazolo[1,5-a]pyridin-4-yl}pyridin-2-yl)-4-[(4-{2-[2-(3-{4-[2-(2,6-dioxopiperidin-3-yl)-1-oxo-2,3-dihydro-1H-isoindol-5-yl]piperazin-1-yl}-3-oxopropoxy)ethoxy]ethyl}piperazin-1-yl)methyl]piperidin-4-yl]-2,5-difluorobenzamide] | 60 to 90% | 10 to 100 nM
CCOc1cc(-c2ccc(N3CCC(CN4CCN(CCC(=O)N5CCN(c6ccc7c(c6)C(=O)N(C6CCC(=O)NC6=O)C7)CC5)CC4)(NC(=O)c4cc(F)ccc4F)CC3)nc2)c2c(C#N)cnn2c1 (centres unmarked) [Example 115, N-[1-(5-{3-cyano-6-ethoxypyrazolo[1,5-a]pyridin-4-yl}pyridin-2-yl)-4-{[4-(3-{4-[2-(2,6-dioxopiperidin-3-yl)-3-oxo-2,3-dihydro-1H-isoindol-5-yl]piperazin-1-yl}-3-oxopropyl)piperazin-1-yl]methyl}piperidin-4-yl]-2,5-difluorobenzamide] | 60 to 90% | 10 to 100 nM
CCOc1cc(-c2ccc(N3CCC(CN4CCN(C(=O)CCN5CCC(Oc6ccc7c(c6)CN(C6CCC(=O)NC6=O)C7=O)CC5)CC4)(NC(=O)c4cc(F)ccc4F)CC3)nc2)c2c(C#N)cnn2c1 (centres unmarked) [Example 118, N-[1-(5-{3-cyano-6-ethoxypyrazolo[1,5-a]pyridin-4-yl}pyridin-2-yl)-4-({4-[3-(4-{[2-(2,6-dioxopiperidin-3-yl)-1-oxo-2,3-dihydro-1H-isoindol-5-yl]oxy}piperidin-1-yl)propanoyl]piperazin-1-yl}methyl)piperidin-4-yl]-2,5-difluorobenzamide] | 60 to 90% | 2 to 10 nM
CCOc1cc(-c2ccc(N3CCC(CN4CCN(C(=O)CCN5CC(c6ccc7c(c6)CN(C6CCC(=O)NC6=O)C7=O)C5)CC4)(NC(=O)c4cc(F)ccc4F)CC3)nc2)c2c(C#N)cnn2c1 (centres unmarked) [Example 119, N-[1-(5-{3-cyano-6-ethoxypyrazolo[1,5-a]pyridin-4-yl}pyridin-2-yl)-4-{[4-(3-{3-[2-(2,6-dioxopiperidin-3-yl)-1-oxo-2,3-dihydro-1H-isoindol-5-yl]azetidin-1-yl}propanoyl)piperazin-1-yl]methyl}piperidin-4-yl]-2,5-difluorobenzamide] | > 90% | 2 to 10 nM

Other lines, results leading:

Dmax | DC50 | SMILES
60 to 90% | 2 to 10 nM | CCOc1cc(-c2ccc(N3CCC(CN4CCN(C(=O)CCOCCN5CCN(c6ccc7c(c6)CN(C6CCC(=O)NC6=O)C7=O)CC5)CC4)(NC(=O)c4cc(F)ccc4F)CC3)nc2)c2c(C#N)cnn2c1 (centres unmarked) [Example 104, N-[1-(5-{3-cyano-6-ethoxypyrazolo[1,5-a]pyridin-4-yl}pyridin-2-yl)-4-({4-[3-(2-{4-[2-(2,6-dioxopiperidin-3-yl)-1-oxo-2,3-dihydro-1H-isoindol-5-yl]piperazin-1-yl}ethoxy)propanoyl]piperazin-1-yl}methyl)piperidin-4-yl]-2,5-difluorobenzamide]
60 to 90% | 2 to 10 nM | CCOc1cc(-c2ccc(N3CCC(CN4CCN(C(=O)CCOCCNc5ccc6c(N7CCC(=O)NC7=O)nn(C)c6c5)CC4)(NC(=O)c4cc(F)ccc4F)CC3)nc2)c2c(C#N)cnn2c1 [Example 105, N-[1-(5-{3-cyano-6-ethoxypyrazolo[1,5-a]pyridin-4-yl}pyridin-2-yl)-4-({4-[3-(2-{[3-(2,4-dioxo-1,3-diazinan-1-yl)-1-methyl-1H-indazol-6-yl]amino}ethoxy)propanoyl]piperazin-1-yl}methyl)piperidin-4-yl]-2,5-difluorobenzamide]
60 to 90% | 2 to 10 nM | CCOc1cc(-c2ccc(N3CCC(CN4CCN(CC5CCN(C(=O)c6ccc7c(c6)C(=O)N(C6CCC(=O)NC6=O)C7)CC5)CC4)(NC(=O)c4cc(F)ccc4F)CC3)nc2)c2c(C#N)cnn2c1 (centres unmarked) [Example 110, N-[1-(5-{3-cyano-6-ethoxypyrazolo[1,5-a]pyridin-4-yl}pyridin-2-yl)-4-{[4-({1-[2-(2,6-dioxopiperidin-3-yl)-3-oxo-2,3-dihydro-1H-isoindole-5-carbonyl]piperidin-4-yl}methyl)piperazin-1-yl]methyl}piperidin-4-yl]-2,5-difluorobenzamide]
60 to 90% | 2 to 10 nM | CCOc1cc(-c2ccc(N3CCC(CN4CCN(CC5CCN(C(=O)Cc6cccc7c6CN(C6CCC(=O)NC6=O)C7=O)CC5)CC4)(NC(=O)c4cc(F)ccc4F)CC3)nc2)c2c(C#N)cnn2c1 (centres unmarked) [Example 111, N-[1-(5-{3-cyano-6-ethoxypyrazolo[1,5-a]pyridin-4-yl}pyridin-2-yl)-4-({4-[(1-{2-[2-(2,6-dioxopiperidin-3-yl)-1-oxo-2,3-dihydro-1H-isoindol-4-yl]acetyl}piperidin-4-yl)methyl]piperazin-1-yl}methyl)piperidin-4-yl]-2,5-difluorobenzamide]
> 90% | 2 to 10 nM | CCOc1cc(-c2ccc(N3CCC(CN4CCN(CC5CCN(C(=O)Cc6ccc7c(c6)CN(C6CCC(=O)NC6=O)C7=O)CC5)CC4)(NC(=O)c4cc(F)ccc4F)CC3)nc2)c2c(C#N)cnn2c1 (centres unmarked) [Example 112, N-[1-(5-{3-cyano-6-ethoxypyrazolo[1,5-a]pyridin-4-yl}pyridin-2-yl)-4-({4-[(1-{2-[2-(2,6-dioxopiperidin-3-yl)-1-oxo-2,3-dihydro-1H-isoindol-5-yl]acetyl}piperidin-4-yl)methyl]piperazin-1-yl}methyl)piperidin-4-yl]-2,5-difluorobenzamide]
> 90% | < 2 nM | CCOc1cc(-c2ccc(N3CCC(CN4CCN(CC5CCN(C(=O)Cc6ccc7c(c6)C(=O)N(C6CCC(=O)NC6=O)C7)CC5)CC4)(NC(=O)c4cc(F)ccc4F)CC3)nc2)c2c(C#N)cnn2c1 (centres unmarked) [Example 113, N-[1-(5-{3-cyano-6-ethoxypyrazolo[1,5-a]pyridin-4-yl}pyridin-2-yl)-4-({4-[(1-{2-[2-(2,6-dioxopiperidin-3-yl)-3-oxo-2,3-dihydro-1H-isoindol-5-yl]acetyl}piperidin-4-yl)methyl]piperazin-1-yl}methyl)piperidin-4-yl]-2,5-difluorobenzamide]
60 to 90% | < 2 nM | CCOc1cc(-c2ccc(N3CCC(CN4CCN(CC5CCN(C(=O)COc6ccc7c(c6)CN(C6CCC(=O)NC6=O)C7=O)CC5)CC4)(NC(=O)c4cc(F)ccc4F)CC3)nc2)c2c(C#N)cnn2c1 (centres unmarked) [Example 114, N-[1-(5-{3-cyano-6-ethoxypyrazolo[1,5-a]pyridin-4-yl}pyridin-2-yl)-4-[(4-{[1-(2-{[2-(2,6-dioxopiperidin-3-yl)-1-oxo-2,3-dihydro-1H-isoindol-5-yl]oxy}acetyl)piperidin-4-yl]methyl}piperazin-1-yl)methyl]piperidin-4-yl]-2,5-difluorobenzamide]
> 90% | 2 to 10 nM | CCOc1cc(-c2ccc(N3CCC(CN4CCN(CCC(=O)N5CCC(c6ccc7c(c6)C(=O)N(C6CCC(=O)NC6=O)C7)CC5)CC4)(NC(=O)c4cc(F)ccc4F)CC3)nc2)c2c(C#N)cnn2c1 (centres unmarked) [Example 116, N-[1-(5-{3-cyano-6-ethoxypyrazolo[1,5-a]pyridin-4-yl}pyridin-2-yl)-4-{[4-(3-{4-[2-(2,6-dioxopiperidin-3-yl)-3-oxo-2,3-dihydro-1H-isoindol-5-yl]piperidin-1-yl}-3-oxopropyl)piperazin-1-yl]methyl}piperidin-4-yl]-2,5-difluorobenzamide]
> 90% | 2 to 10 nM | CCOc1cc(-c2ccc(N3CCC(CN4CCN(CCC(=O)N5CCC(c6ccc7c(c6)C(=O)N(C6CCC(=O)NC6=O)C7=O)CC5)CC4)(NC(=O)c4cc(F)ccc4F)CC3)nc2)c2c(C#N)cnn2c1 (centres unmarked) [Example 117, N-[1-(5-{3-cyano-6-ethoxypyrazolo[1,5-a]pyridin-4-yl}pyridin-2-yl)-4-{[4-(3-{4-[2-(2,6-dioxopiperidin-3-yl)-1,3-dioxo-2,3-dihydro-1H-isoindol-5-yl]piperidin-1-yl}-3-oxopropyl)piperazin-1-yl]methyl}piperidin-4-yl]-2,5-difluorobenzamide]

From patent US20260356830A1, “COMPOUNDS FOR MODULATING RET PROTEIN” (Bristol-Myers Squibb Company, priority 2022, published 2026)
